ChEMBL document CHEMBL3112505, “Discovery of novel indazole derivatives as dual angiotensin II antagonists and partial PPARγ agonists” (Bioorg Med Chem Lett, 2014)

Legend:
[1] = target: T1, Peroxisome proliferator-activated receptor gamma (Homo sapiens, UniProt P37231); experiment: Agonist activity at human PPARgamma expressed in CV-1 cells by reporter gene assay; type: cell-based
T1 sequence (P37231 whole entry): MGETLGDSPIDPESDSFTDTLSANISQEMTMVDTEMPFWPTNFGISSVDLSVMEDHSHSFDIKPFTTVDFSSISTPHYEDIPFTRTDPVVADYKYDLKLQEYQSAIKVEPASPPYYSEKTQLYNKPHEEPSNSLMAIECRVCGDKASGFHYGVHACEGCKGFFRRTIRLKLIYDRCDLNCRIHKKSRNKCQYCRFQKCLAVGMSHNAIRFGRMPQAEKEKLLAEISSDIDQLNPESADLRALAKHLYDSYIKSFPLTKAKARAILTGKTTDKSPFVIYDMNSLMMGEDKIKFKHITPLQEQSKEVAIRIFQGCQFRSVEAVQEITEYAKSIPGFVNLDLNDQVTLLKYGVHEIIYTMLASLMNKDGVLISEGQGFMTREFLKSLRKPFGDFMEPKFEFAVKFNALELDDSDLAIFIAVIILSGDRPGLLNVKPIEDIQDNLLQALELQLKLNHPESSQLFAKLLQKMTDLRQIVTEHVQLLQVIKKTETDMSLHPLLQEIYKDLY

[2] = target: T2, Peroxisome proliferator-activated receptor gamma (Mus musculus, UniProt P37238); experiment: Agonist activity at mouse PPARgamma expressed in CV-1 cells by reporter gene assay; type: cell-based
T2 sequence (P37238 whole entry): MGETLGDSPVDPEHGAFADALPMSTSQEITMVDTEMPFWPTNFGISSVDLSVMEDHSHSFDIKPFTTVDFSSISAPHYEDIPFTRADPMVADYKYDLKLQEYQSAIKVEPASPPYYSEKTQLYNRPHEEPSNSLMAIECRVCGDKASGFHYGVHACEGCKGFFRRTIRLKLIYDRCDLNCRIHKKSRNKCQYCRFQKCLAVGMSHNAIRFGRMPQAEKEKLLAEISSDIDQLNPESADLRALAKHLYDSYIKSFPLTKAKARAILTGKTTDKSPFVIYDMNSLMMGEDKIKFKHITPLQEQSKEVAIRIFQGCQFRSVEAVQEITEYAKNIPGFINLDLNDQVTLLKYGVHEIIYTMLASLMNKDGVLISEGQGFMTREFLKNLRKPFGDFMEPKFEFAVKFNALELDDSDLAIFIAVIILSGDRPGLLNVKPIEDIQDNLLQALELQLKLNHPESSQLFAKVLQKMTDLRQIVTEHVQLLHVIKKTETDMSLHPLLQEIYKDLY

[3] = target: T3, Peroxisome proliferator-activated receptor alpha (Mus musculus) (UniProt P23204); experiment: Agonist activity at mouse PPARalpha expressed in CV-1 cells by reporter gene assay relative to rosiglitazone
T3 sequence (whole entry): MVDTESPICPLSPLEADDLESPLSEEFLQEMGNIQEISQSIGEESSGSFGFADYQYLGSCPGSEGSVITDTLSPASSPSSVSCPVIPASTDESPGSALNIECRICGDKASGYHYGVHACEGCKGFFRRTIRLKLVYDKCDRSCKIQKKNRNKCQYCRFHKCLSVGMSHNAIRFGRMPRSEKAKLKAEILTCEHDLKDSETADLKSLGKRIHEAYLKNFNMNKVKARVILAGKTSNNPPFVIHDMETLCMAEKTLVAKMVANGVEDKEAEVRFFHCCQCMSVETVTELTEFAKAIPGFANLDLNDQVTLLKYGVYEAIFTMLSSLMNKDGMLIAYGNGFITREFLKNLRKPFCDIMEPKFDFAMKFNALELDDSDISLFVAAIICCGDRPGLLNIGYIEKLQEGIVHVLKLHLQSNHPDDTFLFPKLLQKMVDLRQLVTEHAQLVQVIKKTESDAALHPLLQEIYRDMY

[4] = target: T4, Peroxisome proliferator-activated receptor gamma (Mus musculus) (UniProt P37238); experiment: Agonist activity at mouse PPARgamma expressed in CV-1 cells by reporter gene assay relative to rosiglitazone; type: cell-based
T4 sequence (whole entry): T2 sequence (P37238 whole entry)

[5] = target: T5, Peroxisome proliferator-activated receptor alpha (Mus musculus, UniProt P23204); experiment: Agonist activity at mouse PPARalpha expressed in CV-1 cells by reporter gene assay; type: cell-based
T5 sequence (P23204 whole entry): T3 sequence (whole entry)

[6] = target: T6, Type-1 angiotensin II receptor (Homo sapiens, UniProt P30556); experiment: Antagonist activity at human AT1 receptor expressed in CHO cells measured after overnight incubation by luciferase reporter gene assay; type: cell-based
T6 sequence (P30556 whole entry): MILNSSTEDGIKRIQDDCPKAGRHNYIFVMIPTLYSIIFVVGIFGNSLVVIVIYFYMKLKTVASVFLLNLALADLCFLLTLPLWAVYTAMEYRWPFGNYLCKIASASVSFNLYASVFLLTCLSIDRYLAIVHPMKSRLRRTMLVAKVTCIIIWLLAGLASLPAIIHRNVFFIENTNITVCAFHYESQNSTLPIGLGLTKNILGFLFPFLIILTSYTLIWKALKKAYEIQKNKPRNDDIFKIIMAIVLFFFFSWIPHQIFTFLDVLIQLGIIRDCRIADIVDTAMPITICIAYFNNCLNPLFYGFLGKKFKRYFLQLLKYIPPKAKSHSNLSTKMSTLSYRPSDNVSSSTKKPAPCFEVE

[7] = target: T7, Peroxisome proliferator-activated receptor delta (Mus musculus, UniProt P35396); experiment: Agonist activity at mouse PPARdelta expressed in CV-1 cells by reporter gene assay; type: cell-based
T7 sequence (P35396 whole entry): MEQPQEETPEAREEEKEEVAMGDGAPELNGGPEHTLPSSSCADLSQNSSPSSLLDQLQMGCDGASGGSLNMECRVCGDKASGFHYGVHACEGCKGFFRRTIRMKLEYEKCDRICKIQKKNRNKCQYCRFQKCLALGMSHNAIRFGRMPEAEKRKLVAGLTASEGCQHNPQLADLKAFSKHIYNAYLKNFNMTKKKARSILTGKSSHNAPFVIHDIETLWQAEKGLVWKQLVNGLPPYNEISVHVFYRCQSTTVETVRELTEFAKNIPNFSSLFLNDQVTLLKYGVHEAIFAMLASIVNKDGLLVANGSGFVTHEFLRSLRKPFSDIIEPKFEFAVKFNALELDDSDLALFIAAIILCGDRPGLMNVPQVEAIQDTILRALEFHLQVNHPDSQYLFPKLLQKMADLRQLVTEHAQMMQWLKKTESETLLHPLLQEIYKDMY

Row | SMILES | EC50 [1] [nM] | EC50 [2] [nM] | max activation [3] [%] | max activation [4] [%] | EC50 [5] [nM] | IC50 [6] [nM] | EC50 [7] [nM]
1 | CCC(NC(=O)c1ccc2c(c1)c(C)c(C)n2Cc1ccc(-c2ccccc2C(=O)O)cc1)c1ccccc1 (configuration not stated) | – | – | – | – | – | > 10000 | –
2 | CCCc1c(Cc2ccc(-c3ccccc3C(=O)O)cc2)c2ccc(C(=O)NC(CC)c3ccccc3)cc2n1C (configuration not stated) | 2 | 3 | 90 | 42 | 170 | > 10000 | –
3 | CCCc1nn2ccc(-c3nc4ccccc4n3CCC)cc2c1Cc1ccc(-c2ccccc2-c2nn[nH]n2)cc1 | – | – | – | 60 | – | – | –
4 | CCCc1[nH]c2ccc(C(=O)NC(CC)c3ccccc3)cc2c1Cc1ccc(-c2ccccc2C(=O)O)cc1 (configuration not stated) | 350 | 510 | – | 24 | > 10000 | > 10000 | –

Other lines, results leading:

Row | EC50 [1] [nM] | EC50 [2] [nM] | max activation [3] [%] | max activation [4] [%] | EC50 [5] [nM] | IC50 [6] [nM] | EC50 [7] [nM] | SMILES
5 | 6 | 9 | 71 | 36 | 790 | > 10000 | – | CCCc1[nH]c2cc(C(=O)NC(CC)c3ccccc3)ccc2c1Cc1ccc(-c2ccccc2C(=O)O)cc1 (configuration not stated)
6 | 80 | 130 | – | – | > 10000 | 23 | > 10000 | CCCc1nn2ccc(-c3nc4ccccc4n3CCC)cc2c1Cc1ccc(-c2ccccc2-c2nnn[nH]2)cc1
7 | 2650 | – | – | – | – | 128 | – | CCCc1nc2cc(C(=O)NC(CC)c3ccccc3)ccc2n1Cc1ccc(-c2ccccc2C(=O)O)cc1 (configuration not stated)
8 | 280 | 380 | – | 27 | > 10000 | 85 | > 10000 | CCCc1nn2ccc(-c3nc4ccccc4n3CCC)cc2c1Cc1ccc(-c2ccccc2C(=O)O)cc1
